The values below come from ChEMBL document CHEMBL4715724, “Novel 5-substituted-2-anilinoquinolines with 3-(morpholino or 4-methylpiperazin-1-yl)propoxy moiety as broad spectrum antiproliferative agents: Synthesis, cell based assays and kinase screening” (Bioorg Med Chem Lett, 2016).

In one series the test system is NCI-H23. The experiment in a line: cells. Format: functional. The conditions noted are these: Homo sapiens, time 48 hrs.
For series [1], the target named is Fibroblast growth factor receptor 3 (Homo sapiens) (UniProt P22607). The experiment in a line: Inhibition of N-terminal His6-tagged human FGFR3 (447 to 761 residues) expressed in Sf21 cells assessed as residual activity at 10 uM relative to control.
Chain of Fibroblast growth factor receptor 3 (Homo sapiens) (P22607 23-806 limits assumed): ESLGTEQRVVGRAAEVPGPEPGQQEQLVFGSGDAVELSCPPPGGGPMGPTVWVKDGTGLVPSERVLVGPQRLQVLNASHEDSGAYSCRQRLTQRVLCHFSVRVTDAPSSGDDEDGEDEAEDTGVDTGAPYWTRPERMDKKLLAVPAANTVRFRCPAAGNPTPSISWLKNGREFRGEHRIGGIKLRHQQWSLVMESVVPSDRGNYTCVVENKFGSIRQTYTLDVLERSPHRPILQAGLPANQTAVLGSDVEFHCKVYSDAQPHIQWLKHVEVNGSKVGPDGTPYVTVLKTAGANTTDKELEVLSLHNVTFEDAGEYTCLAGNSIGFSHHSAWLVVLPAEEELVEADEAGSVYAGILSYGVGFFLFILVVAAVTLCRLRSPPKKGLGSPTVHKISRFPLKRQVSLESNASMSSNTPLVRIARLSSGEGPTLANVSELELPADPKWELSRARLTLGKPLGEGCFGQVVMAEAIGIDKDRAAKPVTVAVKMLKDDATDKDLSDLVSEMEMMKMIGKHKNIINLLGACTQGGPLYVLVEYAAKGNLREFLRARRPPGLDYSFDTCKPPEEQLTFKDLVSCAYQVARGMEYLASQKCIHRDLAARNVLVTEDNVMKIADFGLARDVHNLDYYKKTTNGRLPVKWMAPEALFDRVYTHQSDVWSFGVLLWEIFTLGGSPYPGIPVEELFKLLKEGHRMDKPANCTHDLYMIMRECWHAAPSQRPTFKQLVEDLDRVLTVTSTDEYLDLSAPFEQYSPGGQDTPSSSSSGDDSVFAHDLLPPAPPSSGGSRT
In a further series the test system is SF-295. Put plainly: cells. Format: functional. The conditions noted are these: Homo sapiens, time 48 hrs.
The target in series [2] is Tyrosine-protein kinase BTK (Homo sapiens) (UniProt Q06187). Put plainly: Inhibition of recombinant full length N-terminal His6-tagged human BTK expressed in baculovirus infected Sf21 cells assessed as residual activity at 10 uM relative to control.
Chain of Tyrosine-protein kinase BTK (Homo sapiens) (Q06187 whole entry): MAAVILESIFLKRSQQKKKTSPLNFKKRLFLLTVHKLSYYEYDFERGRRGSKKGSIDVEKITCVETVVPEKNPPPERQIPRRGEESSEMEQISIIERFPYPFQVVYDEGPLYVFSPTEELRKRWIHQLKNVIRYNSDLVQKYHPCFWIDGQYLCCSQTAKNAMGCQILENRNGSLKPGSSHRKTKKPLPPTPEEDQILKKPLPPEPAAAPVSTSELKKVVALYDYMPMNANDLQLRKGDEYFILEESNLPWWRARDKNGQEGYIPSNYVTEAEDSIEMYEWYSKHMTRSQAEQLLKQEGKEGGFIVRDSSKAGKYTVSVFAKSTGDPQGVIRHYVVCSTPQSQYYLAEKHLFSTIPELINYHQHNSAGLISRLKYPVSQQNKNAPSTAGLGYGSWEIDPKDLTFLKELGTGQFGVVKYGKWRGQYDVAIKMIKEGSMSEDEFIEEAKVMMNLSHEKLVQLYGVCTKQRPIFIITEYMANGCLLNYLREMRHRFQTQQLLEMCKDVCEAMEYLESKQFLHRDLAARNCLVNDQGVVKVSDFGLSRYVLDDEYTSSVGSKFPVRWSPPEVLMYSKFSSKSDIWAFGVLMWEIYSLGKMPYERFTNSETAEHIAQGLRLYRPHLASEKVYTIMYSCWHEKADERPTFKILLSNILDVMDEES
For series [3], the target named is Serine/threonine-protein kinase mTOR (Homo sapiens) (UniProt P42345). Put plainly: Inhibition of human mTOR at 10 uM relative to control.
The subject of the next series is IGROV-1. Put plainly: cells. Conditions: Homo sapiens, time 48 hrs. Format: functional.
Series [4] has as its system Panel colon (Carcinoma cell lines). The experiment in a line: cells. The series is classed as functional. The conditions noted are these: Homo sapiens, time 48 hrs.
Description: Growth inhibition of human Panel colon (Carcinoma cell lines) incubated for 48 hrs by sulforhodamine B assay
Series [5] deals with Ephrin type-B receptor 2 (Homo sapiens) (UniProt P29323). The experiment in a line: Inhibition of N-terminal His6-tagged human EphB2 (560 to end residues) expressed in baculovirus-infected Sf21 cells assessed as residual activity at 10 uM relative to control.
Chain of Ephrin type-B receptor 2 (Homo sapiens) (P29323 whole entry): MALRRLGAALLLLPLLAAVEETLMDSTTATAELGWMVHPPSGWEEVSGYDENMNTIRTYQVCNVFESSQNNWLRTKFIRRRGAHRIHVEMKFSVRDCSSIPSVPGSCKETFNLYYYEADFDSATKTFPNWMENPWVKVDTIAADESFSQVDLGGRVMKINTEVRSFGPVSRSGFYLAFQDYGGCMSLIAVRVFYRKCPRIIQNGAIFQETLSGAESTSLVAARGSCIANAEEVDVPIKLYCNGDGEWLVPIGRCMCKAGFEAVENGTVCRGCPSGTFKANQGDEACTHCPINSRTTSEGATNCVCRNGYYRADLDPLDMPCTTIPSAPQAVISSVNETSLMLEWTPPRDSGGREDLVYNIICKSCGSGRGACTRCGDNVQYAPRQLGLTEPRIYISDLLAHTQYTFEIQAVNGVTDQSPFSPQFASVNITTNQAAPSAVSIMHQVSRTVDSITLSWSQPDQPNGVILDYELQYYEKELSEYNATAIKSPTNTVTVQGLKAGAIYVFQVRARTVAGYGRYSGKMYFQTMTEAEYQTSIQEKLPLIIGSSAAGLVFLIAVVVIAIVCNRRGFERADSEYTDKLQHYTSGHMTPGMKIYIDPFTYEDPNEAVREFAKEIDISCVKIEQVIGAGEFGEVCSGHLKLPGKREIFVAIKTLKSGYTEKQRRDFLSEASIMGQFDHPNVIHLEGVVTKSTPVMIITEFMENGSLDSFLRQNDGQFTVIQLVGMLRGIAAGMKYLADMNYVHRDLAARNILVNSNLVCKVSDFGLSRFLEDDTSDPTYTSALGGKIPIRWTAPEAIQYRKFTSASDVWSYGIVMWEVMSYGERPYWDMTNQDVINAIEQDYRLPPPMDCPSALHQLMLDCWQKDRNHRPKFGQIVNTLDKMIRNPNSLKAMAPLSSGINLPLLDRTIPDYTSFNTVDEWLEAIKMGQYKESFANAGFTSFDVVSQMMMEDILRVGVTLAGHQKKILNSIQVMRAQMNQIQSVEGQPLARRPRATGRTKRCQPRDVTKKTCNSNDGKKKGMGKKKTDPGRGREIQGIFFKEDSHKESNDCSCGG
The test system of the next series is NCI-H460. Put plainly: cells. Format: functional. The conditions noted are these: Homo sapiens, time 48 hrs.
For the next series, the system named is PC-3. Put plainly: cells. The conditions noted are these: Homo sapiens, time 48 hrs. Format: functional.
In the next series the test system is UACC-257. The experiment in a line: cells. The conditions noted are these: Homo sapiens, time 48 hrs. The series is classed as functional.
A further series relates to NCI-H322M. The experiment in a line: cells. The series is classed as functional. The conditions noted are these: Homo sapiens, time 48 hrs.
A further series has as its system HCT-15. Put plainly: cells. Format: functional. The conditions noted are these: Homo sapiens, time 48 hrs.
A further series has as its system U-251. The experiment in a line: cells. Format: functional. Conditions: Homo sapiens, time 48 hrs.
The test system of series [6] is PI3-kinase p110-alpha/p85-alpha (Homo sapiens), P27986+P42336 [E545K]. Put plainly: Inhibition of p110alpha/p85alpha E545K mutant (unknown origin) at 10 uM relative to control. The series is classed as protein-complex assay.
The test system of a further series is MDA-MB-231. The experiment in a line: cells. The series is classed as functional. The conditions noted are these: Homo sapiens, time 48 hrs.
Series [7] has as its target Mitogen-activated protein kinase 1 (Homo sapiens) (UniProt P28482). The experiment in a line: Inhibition of recombinant full length N-terminal GST-tagged human MAPK1 expressed in Escherichia coli at 10 uM relative to control.
In the next series the test system is SNB-75. The experiment in a line: cells. The series is classed as functional. The conditions noted are these: Homo sapiens, time 48 hrs.
The next series deals with NCI-H522. The experiment in a line: cells. Format: functional. Conditions: Homo sapiens, time 48 hrs.
In series [8] the target is High affinity nerve growth factor receptor (Homo sapiens, UniProt P04629). The experiment in a line: Inhibition of recombinant N-terminal His6-tagged human TrkA (440 to end residues) expressed in baculovirus infected Sf21 insect cells.
Chain of High affinity nerve growth factor receptor (P04629 whole entry): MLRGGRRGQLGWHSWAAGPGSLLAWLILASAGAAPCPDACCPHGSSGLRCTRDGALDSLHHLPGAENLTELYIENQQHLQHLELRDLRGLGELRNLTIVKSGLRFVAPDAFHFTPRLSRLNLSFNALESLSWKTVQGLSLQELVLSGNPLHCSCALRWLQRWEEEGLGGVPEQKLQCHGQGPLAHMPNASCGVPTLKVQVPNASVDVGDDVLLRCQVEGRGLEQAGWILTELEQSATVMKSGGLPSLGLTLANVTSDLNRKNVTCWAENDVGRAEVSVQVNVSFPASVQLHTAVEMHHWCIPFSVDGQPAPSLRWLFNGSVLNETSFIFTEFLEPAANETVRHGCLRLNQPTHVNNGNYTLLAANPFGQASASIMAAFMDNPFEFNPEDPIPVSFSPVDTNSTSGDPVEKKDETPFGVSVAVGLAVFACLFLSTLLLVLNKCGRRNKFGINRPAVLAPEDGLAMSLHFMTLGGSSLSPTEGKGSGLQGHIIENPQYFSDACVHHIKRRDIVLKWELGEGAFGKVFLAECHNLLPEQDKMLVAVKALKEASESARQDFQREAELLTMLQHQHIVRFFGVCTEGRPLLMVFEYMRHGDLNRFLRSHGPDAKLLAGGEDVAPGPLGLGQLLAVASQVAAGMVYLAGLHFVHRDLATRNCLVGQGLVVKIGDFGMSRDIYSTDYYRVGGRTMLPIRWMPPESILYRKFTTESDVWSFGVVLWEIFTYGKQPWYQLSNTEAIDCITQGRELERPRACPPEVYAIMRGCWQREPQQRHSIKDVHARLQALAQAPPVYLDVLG
In series [9] the target is Serine/threonine-protein kinase Sgk1 (Homo sapiens) (UniProt O00141). The experiment in a line: Inhibition of human SGK1 at 10 uM relative to control. Conditions: Sf21.
Chain of Serine/threonine-protein kinase Sgk1 (Homo sapiens) (O00141 whole entry): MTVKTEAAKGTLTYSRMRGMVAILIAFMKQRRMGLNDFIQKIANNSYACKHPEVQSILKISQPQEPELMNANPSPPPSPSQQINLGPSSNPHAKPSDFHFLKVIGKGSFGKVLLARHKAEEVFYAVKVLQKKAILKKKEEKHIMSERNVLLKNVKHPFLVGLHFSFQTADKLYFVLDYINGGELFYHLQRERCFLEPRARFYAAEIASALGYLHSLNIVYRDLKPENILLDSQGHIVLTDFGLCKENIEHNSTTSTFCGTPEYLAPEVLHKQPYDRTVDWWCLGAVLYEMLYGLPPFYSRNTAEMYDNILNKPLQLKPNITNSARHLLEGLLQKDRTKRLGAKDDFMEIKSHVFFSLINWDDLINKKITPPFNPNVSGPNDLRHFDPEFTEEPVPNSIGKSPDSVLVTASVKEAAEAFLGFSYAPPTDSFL
Series [10] in a line: Cytotoxicity against human HFF-1 cells assessed as cell growth inhibition by MTT assay. The series is classed as cell-based. (Tetrazolium assays rely on reduction of a dye to a coloured formazan, in cell work by metabolically active cells.)

Where only a bound is given, the exact number is not on record here.

Chain of Mitogen-activated protein kinase 1 (Homo sapiens) (P28482 whole entry): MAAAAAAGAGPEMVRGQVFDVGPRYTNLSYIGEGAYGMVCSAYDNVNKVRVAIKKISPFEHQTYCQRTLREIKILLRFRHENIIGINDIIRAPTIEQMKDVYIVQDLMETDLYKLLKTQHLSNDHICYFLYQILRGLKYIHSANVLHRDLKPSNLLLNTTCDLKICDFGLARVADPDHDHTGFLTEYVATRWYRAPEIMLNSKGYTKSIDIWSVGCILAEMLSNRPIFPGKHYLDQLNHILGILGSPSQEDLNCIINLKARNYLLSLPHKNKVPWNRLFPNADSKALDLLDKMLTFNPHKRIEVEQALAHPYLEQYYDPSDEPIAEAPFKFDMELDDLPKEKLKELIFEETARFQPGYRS
Description for HCT-15: Growth inhibition of human HCT-15 cells incubated for 48 hrs by sulforhodamine B assay
Description for IGROV-1: Growth inhibition of human IGROV-1 cells incubated for 48 hrs by sulforhodamine B assay
Description for MDA-MB-231: Growth inhibition of human MDA-MB-231/ATCC cells incubated for 48 hrs by sulforhodamine B assay
Description for NCI-H23: Growth inhibition of human NCI-H23 cells incubated for 48 hrs by sulforhodamine B assay
Description for NCI-H322M: Growth inhibition of human NCI-H322M cells incubated for 48 hrs by sulforhodamine B assay
Description for NCI-H460: Growth inhibition of human NCI-H460 cells incubated for 48 hrs by sulforhodamine B assay
Description for NCI-H522: Growth inhibition of human NCI-H522 cells incubated for 48 hrs by sulforhodamine B assay
Description for PC-3: Growth inhibition of human PC-3 cells incubated for 48 hrs by sulforhodamine B assay
Description for SF-295: Growth inhibition of human SF-295 cells incubated for 48 hrs by sulforhodamine B assay
Description for SNB-75: Growth inhibition of human SNB-75 cells incubated for 48 hrs by sulforhodamine B assay
Description for U-251: Growth inhibition of human U-251 cells incubated for 48 hrs by sulforhodamine B assay
Description for UACC-257: Growth inhibition of human UACC-257 cells incubated for 48 hrs by sulforhodamine B assay

The GI50 is the concentration giving 50% growth inhibition. A word on the inhibition: it is the change of the read-out against control, counted positive when it falls. Broadly, the TGI is the concentration at which net growth stops. A lower TGI goes with more potent growth arrest. What is called IC50 is the midpoint of a concentration-inhibition curve. Take `CN1CCN(CCCOc2cccc3nc(Nc4ccc(Cl)c(C(F)(F)F)c4)ccc23)CC1`: the concentration for 50% growth inhibition (GI50) in the series on NCI-H23 stood at 1.78 µM; in the series with SF-295, 1.8 µM; in the series with IGROV-1, 1.85 µM; in [4], 1.58 µM; with NCI-H460, 1.72 µM; in the series with PC-3 it was 1.57 µM. In addition, the GI50 was determined as 1.72 µM with UACC-257; 1.44 µM with NCI-H322M; 1.22 µM in the series with HCT-15; 1.49 µM in the series on U-251; 1.47 µM in the series on MDA-MB-231; 1.52 µM in the series on SNB-75. Further, the concentration for 50% growth inhibition (GI50) with NCI-H522 is 1.83 µM; in series [10], more than 10 µM. In addition, the Activity in series [1], in series [2] and in series [5] was less than 60% in each case. Besides, the inhibition in series [3], in [6], in series [7] and in series [9] was less than 60% throughout. Total growth inhibition in series [4] (TGI) required 3.17 µM. Besides, the CC50 in series [4] (read-out: LC50 (the source's name)) came out at 6.27 µM. The half-maximal inhibitory concentration (IC50) in [8] turned out to be 2.52 µM.
